In the supplement of paper PMC11451515:

Columns and labels:
Conditions in all cases: 48 h
SEM cells [1] = test: cell viability relative to DMSO control; higher = less cytotoxic
In short: (§1)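 Cells were incubated for 48 h at 37°C before CellTiter-Glo One luminescence was read. The cells were NOMO1 or SEM (500 cells/well) or P12-Ichikawa (1000 cells/well) leukemia cells, adapted for at least four passages in each medium and seeded in 1536-well plates (5 μl). Dosing used library compounds in DMSO applied by pin over 11 threefold points, 47 μM to 0.79 nM. Viability is the per-plate percentage of DMSO wells, with cell-free wells as background.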

NOMO1 [2] = test: as above
In short: as §1

P12-Ichikawa [3] = test: as above
In short: as §1

SEM cells [4] = test: AUC of viability dose-response curve (% viability x log10 dose units); higher = less sensitive
In short: (§2)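 Over 48 h at 37°C, leukemia cells in 1536-well plates (500 or 1000 cells/well), adapted to each medium, received library compounds in DMSO at 11 threefold doses from 47 μM to 0.79 nM. CellTiter-Glo One luminescence, normalised per plate to DMSO and cell-free wells, was fitted by a four-parameter log-logistic function of log10 dose. The area under the curve was then integrated by trapezoidal rule, after scaling curves above full viability and removing those that failed quality control.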

NOMO1 [5] = test: as above
In short: as §2

P12-Ichikawa [6] = test: as above
In short: as §2

O=C(Nc1cccc(Nc2ncc(Br)c(NCCc3cnc[nH]3)n2)c1)N1CCCC1
cell viability [%]
Conditions	NOMO1 [2]	P12-Ichikawa [3]	SEM cells [1]
HPLM + 10% dialyzed FBS, 0.000781 µM	–	–	77.4
HPLM + 10% dialyzed FBS, 0.00234 µM	–	–	78.4
HPLM + 10% dialyzed FBS, 0.00702 µM	–	–	79.3
HPLM + 10% dialyzed FBS, 0.0211 µM	–	–	72.1
HPLM + 10% dialyzed FBS, 0.0632 µM	–	–	67.4
HPLM + 10% dialyzed FBS, 0.19 µM	–	–	47.5
HPLM + 10% dialyzed FBS, 0.569 µM	–	–	32.7
HPLM + 10% dialyzed FBS, 1.71 µM	–	–	17.4
HPLM + 10% dialyzed FBS, 5.12 µM	–	–	9.22
HPLM + 10% dialyzed FBS, 15.4 µM	–	–	5.65
HPLM + 10% dialyzed FBS, 46.1 µM	–	–	1.1
RPMI 5 mM glucose + 10% FBS, 0.000781 µM	113	98	87.7
RPMI 5 mM glucose + 10% FBS, 0.00234 µM	117	103	77.9
RPMI 5 mM glucose + 10% FBS, 0.00702 µM	122	110	80.5
RPMI 5 mM glucose + 10% FBS, 0.0211 µM	112	90.7	75.9
RPMI 5 mM glucose + 10% FBS, 0.0632 µM	112	88.1	69.1
RPMI 5 mM glucose + 10% FBS, 0.19 µM	110	79.7	41
RPMI 5 mM glucose + 10% FBS, 0.569 µM	68.7	34.5	21.1
RPMI 5 mM glucose + 10% FBS, 1.71 µM	71.1	15.2	8.73
RPMI 5 mM glucose + 10% FBS, 5.12 µM	62.8	18.8	3.21
RPMI 5 mM glucose + 10% FBS, 15.4 µM	12.4	33.5	1.59
RPMI 5 mM glucose + 10% FBS, 46.1 µM	1.13	3.48	1.07
RPMI 5 mM glucose + 10% dialyzed FBS, 0.000781 µM	103	111	82.5
RPMI 5 mM glucose + 10% dialyzed FBS, 0.00234 µM	106	104	62.9
RPMI 5 mM glucose + 10% dialyzed FBS, 0.00702 µM	107	107	71
RPMI 5 mM glucose + 10% dialyzed FBS, 0.0211 µM	107	103	64.2
RPMI 5 mM glucose + 10% dialyzed FBS, 0.0632 µM	113	99.5	66.9
RPMI 5 mM glucose + 10% dialyzed FBS, 0.19 µM	95.2	92.6	38.6
RPMI 5 mM glucose + 10% dialyzed FBS, 0.569 µM	92.2	95.1	26.6
RPMI 5 mM glucose + 10% dialyzed FBS, 1.71 µM	59.6	20.3	12.8
RPMI 5 mM glucose + 10% dialyzed FBS, 5.12 µM	65.2	27.2	7.16
RPMI 5 mM glucose + 10% dialyzed FBS, 15.4 µM	37.1	34.6	3.89
RPMI 5 mM glucose + 10% dialyzed FBS, 46.1 µM	0.0873	9.06	1.39

AUC of viability dose-response curve
Conditions	NOMO1 [5]	P12-Ichikawa [6]	SEM cells [4]
HPLM + 10% dialyzed FBS	349	318	213
RPMI 5 mM glucose + 10% FBS	342	294	203
RPMI 5 mM glucose + 10% dialyzed FBS	369	344	191

CC(C)[C@@H](C[S+](=O)([O-])C(C)C)N1C(=O)[C@@](C)(CC(=O)O)C[C@H](c2cccc(Cl)c2)[C@H]1c1ccc(Cl)cc1
cell viability [%]
Conditions	NOMO1 [2]	P12-Ichikawa [3]	SEM cells [1]
HPLM + 10% dialyzed FBS, 0.000781 µM	122	109	124
HPLM + 10% dialyzed FBS, 0.00234 µM	115	103	107
HPLM + 10% dialyzed FBS, 0.00702 µM	129	108	125
HPLM + 10% dialyzed FBS, 0.0211 µM	143	106	117
HPLM + 10% dialyzed FBS, 0.0632 µM	140	113	115
HPLM + 10% dialyzed FBS, 0.19 µM	97.9	71.2	106
HPLM + 10% dialyzed FBS, 0.569 µM	36.4	17.2	85.9
HPLM + 10% dialyzed FBS, 1.71 µM	35.6	14	77.1
HPLM + 10% dialyzed FBS, 5.12 µM	31.2	15.4	54.3
HPLM + 10% dialyzed FBS, 15.4 µM	33.6	17.7	31.8
HPLM + 10% dialyzed FBS, 46.1 µM	29.3	15.6	18.7
RPMI 5 mM glucose + 10% FBS, 0.000781 µM	128	109	–
RPMI 5 mM glucose + 10% FBS, 0.00234 µM	106	111	–
RPMI 5 mM glucose + 10% FBS, 0.00702 µM	113	114	–
RPMI 5 mM glucose + 10% FBS, 0.0211 µM	109	114	–
RPMI 5 mM glucose + 10% FBS, 0.0632 µM	121	120	–
RPMI 5 mM glucose + 10% FBS, 0.19 µM	128	107	–
RPMI 5 mM glucose + 10% FBS, 0.569 µM	111	63.3	–
RPMI 5 mM glucose + 10% FBS, 1.71 µM	64.8	50.6	–
RPMI 5 mM glucose + 10% FBS, 5.12 µM	24.5	21.7	–
RPMI 5 mM glucose + 10% FBS, 15.4 µM	19.5	11.7	–
RPMI 5 mM glucose + 10% FBS, 46.1 µM	22.2	12.1	–
RPMI 5 mM glucose + 10% dialyzed FBS, 0.000781 µM	117	119	127
RPMI 5 mM glucose + 10% dialyzed FBS, 0.00234 µM	98.5	117	109
RPMI 5 mM glucose + 10% dialyzed FBS, 0.00702 µM	108	120	121
RPMI 5 mM glucose + 10% dialyzed FBS, 0.0211 µM	112	123	110
RPMI 5 mM glucose + 10% dialyzed FBS, 0.0632 µM	145	122	128
RPMI 5 mM glucose + 10% dialyzed FBS, 0.19 µM	132	112	113
RPMI 5 mM glucose + 10% dialyzed FBS, 0.569 µM	98.5	81.2	100
RPMI 5 mM glucose + 10% dialyzed FBS, 1.71 µM	65.9	59.7	70.9
RPMI 5 mM glucose + 10% dialyzed FBS, 5.12 µM	47.1	25.7	47.8
RPMI 5 mM glucose + 10% dialyzed FBS, 15.4 µM	25.2	18.1	26.5
RPMI 5 mM glucose + 10% dialyzed FBS, 46.1 µM	19.1	21.1	18.5

AUC of viability dose-response curve
Conditions	NOMO1 [5]	P12-Ichikawa [6]	SEM cells [4]
HPLM + 10% dialyzed FBS	306	278	355
RPMI 5 mM glucose + 10% FBS	357	320	289
RPMI 5 mM glucose + 10% dialyzed FBS	362	335	360

Cc1cc(Nc2nc(N[C@@H](C)c3ncc(F)cn3)ncc2Cl)n[nH]1
cell viability [%]
Conditions	NOMO1 [2]	P12-Ichikawa [3]	SEM cells [1]
HPLM + 10% dialyzed FBS, 0.000781 µM	89.6	95.1	93
HPLM + 10% dialyzed FBS, 0.00234 µM	95	111	97.4
HPLM + 10% dialyzed FBS, 0.00702 µM	113	109	109
HPLM + 10% dialyzed FBS, 0.0211 µM	124	114	114
HPLM + 10% dialyzed FBS, 0.0632 µM	113	116	103
HPLM + 10% dialyzed FBS, 0.19 µM	113	119	106
HPLM + 10% dialyzed FBS, 0.569 µM	109	126	102
HPLM + 10% dialyzed FBS, 1.71 µM	63.3	108	99.4
HPLM + 10% dialyzed FBS, 5.12 µM	19.9	70.6	61.2
HPLM + 10% dialyzed FBS, 15.4 µM	19.5	55	21.7
HPLM + 10% dialyzed FBS, 46.1 µM	28.5	56.9	19.4
RPMI 5 mM glucose + 10% FBS, 0.000781 µM	114	113	120
RPMI 5 mM glucose + 10% FBS, 0.00234 µM	126	122	129
RPMI 5 mM glucose + 10% FBS, 0.00702 µM	117	116	114
RPMI 5 mM glucose + 10% FBS, 0.0211 µM	124	126	110
RPMI 5 mM glucose + 10% FBS, 0.0632 µM	114	112	112
RPMI 5 mM glucose + 10% FBS, 0.19 µM	123	112	126
RPMI 5 mM glucose + 10% FBS, 0.569 µM	125	118	110
RPMI 5 mM glucose + 10% FBS, 1.71 µM	116	118	26.2
RPMI 5 mM glucose + 10% FBS, 5.12 µM	98.4	115	19
RPMI 5 mM glucose + 10% FBS, 15.4 µM	19.5	98	17.1
RPMI 5 mM glucose + 10% FBS, 46.1 µM	15.7	42.5	20.3
RPMI 5 mM glucose + 10% dialyzed FBS, 0.000781 µM	108	109	–
RPMI 5 mM glucose + 10% dialyzed FBS, 0.00234 µM	119	110	–
RPMI 5 mM glucose + 10% dialyzed FBS, 0.00702 µM	105	119	–
RPMI 5 mM glucose + 10% dialyzed FBS, 0.0211 µM	127	117	–
RPMI 5 mM glucose + 10% dialyzed FBS, 0.0632 µM	127	121	–
RPMI 5 mM glucose + 10% dialyzed FBS, 0.19 µM	120	119	–
RPMI 5 mM glucose + 10% dialyzed FBS, 0.569 µM	126	109	–
RPMI 5 mM glucose + 10% dialyzed FBS, 1.71 µM	135	118	–
RPMI 5 mM glucose + 10% dialyzed FBS, 5.12 µM	112	90.8	–
RPMI 5 mM glucose + 10% dialyzed FBS, 15.4 µM	38.3	50.6	–
RPMI 5 mM glucose + 10% dialyzed FBS, 46.1 µM	23.8	45.2	–

AUC of viability dose-response curve
Conditions	NOMO1 [5]	P12-Ichikawa [6]	SEM cells [4]
HPLM + 10% dialyzed FBS	363	421	399
RPMI 5 mM glucose + 10% FBS	408	454	336
RPMI 5 mM glucose + 10% dialyzed FBS	422	425	365
